SMILES strings stand for the structures.

In general, viability refers to a read-out of living cells in per cent, often relative to untreated cells.

This series in a line: in vitro. To be noted: human, hela cells, % viability.
For `CCCc1n[nH]c(C(C)C)c1C(=O)OCC` [CBK115724], the viability at 28.5 h, 10 µM came out at 98.7%.
Under `Cc1ncsc1CCOc1nccnc1NC(C)C` [CBK115728] stands 106%; under `Cc1ncsc1CCOc1nc2cc(Cl)c(Cl)cc2nc1NC(C)C` [CBK115744], 88.6%.
Under `Cc1cc(COc2nccnc2N2CCCC2)no1` [CBK115755] stands 91.3%; under `CSCCOc1nccnc1N1CCCC1` [CBK115757], 120%.
Under `c1cc(CCCOc2cncc(N3CCCC3)n2)ccn1` [CBK115760] stands 85.3%; under `CSCCOc1cncc(N2CCCC2)n1` [CBK115761], 101%; under `Clc1cc2nc(OCCCc3ccncc3)c(N3CCCC3)nc2cc1Cl` [CBK115774], 98%.
Turning to `FC(F)(F)c1cccnc1OCc1cccnc1` [CBK115780], the viability at 28.5 h, 10 µM came to 101%.
Consider `FC(F)(F)c1cccnc1OCCCc1ccncc1` [CBK115782], for which the viability at 28.5 h, 10 µM came to 93.9%.
On to `Cc1ncsc1CCOc1cc(C(F)(F)F)ccn1` [CBK115785], for which the viability at 28.5 h, 10 µM worked out at 100%.
For `Cc1ncsc1CCOc1ccc(C(F)(F)F)cn1` [CBK115790], the viability at 28.5 h, 10 µM is 101%.
Regarding `FC(F)(F)c1cccc(OCCCc2ccncc2)n1` [CBK115795], the viability at 28.5 h, 10 µM came out at 98.8%.
Under `Oc1cccc(OCCOc2cccc(C(F)(F)F)n2)c1` [CBK115797] stands 84.7%; under `Cc1cc(COc2nccc(C(F)(F)F)n2)no1` [CBK115800], 88.7%; under `Cc1ncsc1CCOc1nc2ccccc2nc1C(F)(F)F` [CBK115802], 95.2%.
Regarding `FC(F)(F)c1nc2ccccc2nc1OCCCc1ccncc1` [CBK115804], the viability at 28.5 h, 10 µM came out at 85.1%.
Consider `FC(F)(F)c1nc2ccccc2nc1OC1CCOC1` (stereo not drawn) [CBK115806], for which the viability at 28.5 h, 10 µM came out at 99.6%.
For `c1ccc(NCCOc2nccnc2N2CCCC2)cc1` [CBK115814] the value was 87.9%; for `c1ccc2nc(N3CCCC3)c(OCc3ccsc3)nc2c1` [CBK115819], 90.2%; for `FC(F)(F)c1ccnc(OCCNc2ccccc2)c1` [CBK115824], 90.5%.
Turning to `FC(F)(F)c1ccnc(OCc2ccc(-c3ccccc3)cc2)c1` [CBK115826], the viability at 28.5 h, 10 µM was determined as 108%.
Under `FC(F)(F)c1ccc(OCCNc2ccccc2)nc1` [CBK115828] stands 101%.
Under `FC(F)(F)c1ccc(OCCOc2ccccc2)nc1` [CBK115829] stands 80.4%; under `FC(F)(F)c1cccc(OCc2ccc(-c3ccccc3)cc2)n1` [CBK115836], 92.1%; under `O=C1NC2(CCN(C(=O)c3ccc(C(F)(F)F)c(F)c3)CC2)Oc2ccc(-c3ccccc3)cc21` [CBK115841], 99.7%.
Under `N#Cc1ccc(C(=O)N2CCC3(CC2)NC(=O)c2cc(-c4ccoc4)ccc2O3)cc1` [CBK115852] stands 88.9%.
On to `CC(=O)Nc1ccc(S(=O)(=O)N2CCC3(CC2)NC(=O)c2cc(-c4ccoc4)ccc2O3)cc1` [CBK115856], for which the viability at 28.5 h, 10 µM turned out to be 113%.
For `COc1cc2c(cc1OC)CN(C(=O)c1ccccn1)CC2` [CBK115864] the value was 98.5%; for `COC(=O)c1sc2cc(C(F)(F)F)cnc2c1NC(=O)C1COc2ccccc2O1` (stereo not drawn) [CBK115865], 107%; for `COc1ccc2[nH]cc(CCNC(=O)c3ccccn3)c2c1` [CBK115866], 95.7%.
On to `COCCCOc1nccnc1NC(C)C` [CBK115876], for which the viability at 28.5 h, 10 µM amounted to 90%.
Take `CC(C)Nc1cc(OCc2cccnc2)ncn1` [CBK115883]: the viability at 28.5 h, 10 µM was 91.3%.
For `Cc1ncsc1CCOc1cc(NC(C)C)ncn1` [CBK115884] the value was 84.8%.
In the case of `COCCCOc1cc(NC(C)C)ncn1` [CBK115885], the viability at 28.5 h, 10 µM came to 92.6%.
For `CC(C)Nc1cc(OC2CCOC2)ncn1` (stereo not drawn) [CBK115888] the value was 93.4%; for `c1cnc(N2CCCC2)c(OC2CCOC2)n1` (stereo not drawn) [CBK115891], 91.2%; for `c1ncc(N2CCCC2)nc1OC1CCOC1` (stereo not drawn) [CBK115893], 91.3%.
Take `COCCCOc1cc(N2CCCC2)ncn1` [CBK115896]: the viability at 28.5 h, 10 µM was 102%.
For `CSCCOc1cc(N2CCCC2)ncn1` [CBK115900] the value was 90%; for `Oc1cccc(OCCOc2nc3ccccc3nc2N2CCCC2)c1` [CBK115901], 84.1%.
In the case of `Oc1cccc(OCCOc2nccc(C(F)(F)F)n2)c1` [CBK115903], the viability at 28.5 h, 10 µM was 92.7%.
For `O=C(NCC1CCCN1)c1cc2cc(Cl)ccc2[nH]1` (stereo not drawn) [CBK115917C] the value was 104%.
For the compound `CC(C)(C)c1cc(C(=O)NCC2CCCN2)n(Cc2ccc(Cl)cc2Cl)n1` (stereo not drawn) [CBK115920C], the viability at 28.5 h, 10 µM was 96.1%.
As to `O=C(NCC1CCCN1)c1cc(C(=O)c2ccc(Cl)cc2Cl)c[nH]1` (stereo not drawn) [CBK115923C], the viability at 28.5 h, 10 µM was 86.1%.
With `O=C(NCC1CCCN1)c1cnn(-c2ccc(Cl)cc2)c1C(F)(F)F` (stereo not drawn) [CBK115925C], the viability at 28.5 h, 10 µM was found to be 101%.
For `NCCNC(=O)c1ccc(-c2cccc(C(F)(F)F)c2)o1` [CBK115927C] the value was 104%; for `CN1CCN(CCOC(=O)N2CCN(c3cccc(C(F)(F)F)c3)CC2)CC1` [CBK115940C], 103%; for `O=C(O)c1cccc(Sc2nccc(C(F)(F)F)n2)c1` [CBK115957], 90.2%.
For `COc1ccccc1-c1nnc(SCC(=O)O)n1-c1ccccc1` [CBK116149], the viability at 28.5 h, 10 µM turned out to be 89.5%.
As to `COc1ccc2[nH]cc(CCNC(=O)CC(C)O)c2c1` (stereo not drawn) [CBK116201], the viability at 28.5 h, 10 µM stood at 106%.
For `COc1ccc2[nH]cc(CCNC(=O)c3cc(C)[nH]n3)c2c1` [CBK116206] the value was 89.8%.
For `COc1ccc2[nH]cc(CCNC(=O)[C@H](CC(C)C)NC(C)=O)c2c1` [CBK116210] the value was 107%.
`CCCc1n[nH]c(O)c1Cc1ccc(OCCCN(C)C)cc1` [CBK116249A]: the viability at 28.5 h, 10 µM was found to be 93.1%.
For `CN1CCN(C(=O)Nc2cccc(-c3nc(-c4ccc(C#N)cc4)cnc3N)c2)CC1` [CBK116251] the value was 91.7%; for `Cc1cc(NC(=O)CC2CC2)c2ccccc2n1` [CBK116257], 98.6%; for `Cc1cc(NC(=O)Cc2ccsc2)c2ccccc2n1` [CBK116259], 89.4%.
As for `Cc1cc(NC(=O)c2cc(C)[nH]n2)c2ccccc2n1` [CBK116260], the viability at 28.5 h, 10 µM stood at 98.5%.
On to `O=C(NC1CC2CCC(C1)N2Cc1ccccc1)c1cccc(Cl)c1` (stereo not drawn) [CBK116291], for which the viability at 28.5 h, 10 µM was 95.4%.
Under `O=C1N=C(NC2CC3CCC2C3)SC12CCCO2` (stereo not drawn) [CBK116312] stands 110%; under `CN1CC(=O)N(c2ccc(Cl)cc2Cl)C1=O` [CBK116319], 93%.
Under `CN1C(=O)CN(C2CCCCC2)C1=O` [CBK116320] stands 82.3%; under `CC(C(=O)N1CCCCC1)n1sc2ccccc2c1=O` (stereo not drawn) [CBK116322], 98.4%.

The record behind these values is paper PMC12040169 (PLOS Biology, 2025).
